# Values of other authors as cited in US20050227929A1, “Combination therapy comprising a Cox-2 inhibitor and an antineoplastic agent” (priority 2003, published 2005).
# Where two headings read alike, the source gives them in different places. Where a SMILES comes first, the peptide text is derived from it.
# Columns and labels:
# [1] = human, in vivo
# tumors = conditions: tumor-bearing mice received 225-300 μg/kg over 5 days
molecule,measurement,setting,value
CNC(=O)c1cc(Oc2ccc(NC(=O)Nc3ccc(Cl)c(C(F)(F)F)c3)cc2)ccn1 [BAY-439006],Toxicity,dosage listed: 50-400 mg/day,well tolerated
"N[C@@H](CCC(=O)O)C(=O)N[C@@H](Cc1c[nH]c2ccccc12)C(=O)O [IM 862, L-alpha-glutamyl-L-tryptophan] (H-Glu-Trp-OH)",Toxicity,in vivo,no hematological
"COc1ccc(NS(=O)(=O)c2c(F)c(F)c(F)c(F)c2F)cc1F [T138067, 2,3,4,5,6-pentafluoro-N-(3-fluoro-4-methoxyphenyl)benzenesulfonamide]",Dosage: tolerability,up to 440 mg/m^2 by 3-hour infusion every 4 weeks,well tolerated
"CC(C)[C@H]1C(=O)N[C@@H](CCCN=C(N)N)C(=O)NCC(=O)N[C@@H](CC(=O)O)C(=O)N[C@H](Cc2ccccc2)C(=O)N1C [cilengitide, cyclo(L-arginylglycyl-L-alpha-aspartyl-D-phenylalanyl-N-methyl-L-valyl)]",Toxicity,[1],well tolerated and safe
Cc1occc(=O)c1[O-].Cc1occc(=O)c1[O-].Cc1occc(=O)c1[O-].[Ga+3] [gallium maltolate],Toxicity,in vivo,good safety
"Cc1ccc2nc(N)[nH]c(=O)c2c1Sc1ccncc1 [nolatrexed, 2-amino-6-methyl-5-(4-pyridinylthio)-4(1H)-quinazolinone]",Dosage: tolerability,[1],tumors is well
"O=S1(=O)CCN(CN2CCS(=O)(=O)NC2)CN1 [taurolidine, 4,4′-methylenebis[tetrahydro-2H-1,2,4-thiadiazine]1,1,1′,1′-tetraoxide]",Dosage: tolerability,"in vivo, 350 mg/kg/day",well tolerated
Nc1ccn([C@@H]2O[C@H](CO)[C@@H](O)/C2=C\F)c(=O)n1 [tezacitabine],Toxicity,[1],generally
"SB-408075 (conjugate, chains of the INN, looked up, DM1 maytansinoid payload) VH: QVQLVQSGAEVKKPGETVKISCKASDYTFTYYGMNWVKQAPGQGLKWMGWIDTTTGEPTYAQKFQGRIAFSLETSASTAYLQIKSLKSEDTATYFCARRGPYNWYFDVWGQGTTVTVSS VL: DIVMTQSPLSVPVTPGEPVSISCRSSKSLLHSNGNTYLYWFLQRPGQSPQLLIYRMSNLVSGVPDRFSGSGSGTAFTLRISRVEAEDVGVYYCLQHLEYPFTFGPGTKLELK",complete responses seen in % of animals,tumors,in 100% of
